Laboratory results as given in article PMC12006031, “Inhibitory Effect of Whey Protein‐Derived Peptide Leu‐Asp‐Gln‐Trp on Xanthine Oxidase” (Food Science & Nutrition, 2025).
Like-named read-outs stand apart in the source and are kept apart here. Each block holds one molecule with its values, some of them ahead of it. Residues, ends and D or L forms follow the SMILES beside them. No end group written: not given here.

How the values were obtained:
xanthine oxidase (XO) = details: cited from earlier work; for IC50: literature value, ref He et al. [2019], Mao et al. [2023], Xu, Liu, et al. [2024], read-out: IC50 (XO inhibition)
XO from bovine milk [1] = biological target: T1, XO from bovine milk (Bos taurus, UniProt P80457); assay: XO inhibitory activity by absorptiometry (absorbance at 290 nm, microplate reader); format: biochemical; details: for Suppression of the absorbance increase / enzymatic reaction compared with control (relative absorbance): 290 nm every 5 min for 30 min, Figure 2; for Concentration dependence of XO inhibitory activity / Concentration with significant XO inhibition: absorptiometry; for Concentration with significant XO inhibition: vs. control, p < 0.01, one-way ANOVA, Tukey-Kramer
T1 construct: XO from bovine milk and xanthine were purchased from Sigma‐Aldrich Corp. (MO, USA); purchased Sigma‐Aldrich Corp. (MO, USA); host or cells: bovine milk (natural source)
Protocol: (§1) Tryptophan and leucine were obtained from Kanto Chemical Co. Ltd. (Tokyo, Japan). The evaluation samples such as peptides and amino acids, and allopurinol (FUJIFILM Wako Pure Chemical Corp., Tokyo, Japan) as a positive control for the evaluation method, were suspended in 0.1 M phosphate buffer pH 7.2 (FUJIFILM Wako Pure Chemical Corp., Tokyo, Japan) containing 0.1 M sodium chloride. The samples were obtained for the assay after sonication for 10 min. XO from bovine milk and xanthine were purchased from Sigma‐Aldrich Corp. (MO, USA). […] The xanthine solution was prepared by diluting it with buffer at a ratio of 1:10.
2.2 Enzymatic Reaction and Monitoring of Absorbance Using a Microplate Reader
(§2) Briefly, the samples (e.g., LDQW) or allopurinol were mixed with the XO solution (final concentration: 25 U/L). A mixture added to the buffer instead of the sample was analyzed as a control. […] The sample, XO solution, and xanthine solution were reacted in a 2:1:1 ratio. The assay was performed in triplicate. The XO inhibitory activity was calculated using the following equation: XOinhibitory activity%=1−AbS30min−AbS0min/AbC30min−AbC0min×100
AbS30min : Absorbance of the sample at 30 min.
AbS0min : Absorbance of the sample at 0 min.
AbC30min : Absorbance of the control at 30 min.
AbC0min : Absorbance of the control at 0 min.
(§3) All experiments were performed in triplicate, with data indicated as mean ± standard deviation (SD). […] One‐way analysis of variance (ANOVA) was used for parametric analyses, followed by the Tukey–Kramer test. p values of < 0.05 were considered statistically significant.

XO from bovine milk [2] = biological target: T1, XO from bovine milk; assay: XO inhibitory activity by LC-MS/MS quantification of uric acid; format: biochemical; details: for Concentration dependence of XO inhibition: Figure 5 or Figure 6; for Concentration with significant XO inhibition: vs. control, Figure 5; for Concentration with significant XO inhibition / Significance of XO inhibition at any concentration: one-way ANOVA, Tukey-Kramer; for Concentration with significant XO inhibition / XO inhibitory activity (inhibition ratio) / Significance of XO inhibition at any concentration: n = 3; for XO inhibitory activity (inhibition ratio): 20 mM, UA by LC-MS/MS (PRM m/z 169.03/70.04) after 30 min, XO 25 U/L, xanthine 0.42 mM, 0.1 M phosphate buffer pH 7.2 containing 0.1 M sodium chloride, mean ± SD; for Significance of XO inhibition at any concentration: tryptophan Figure 5, leucine Figure 6
Protocol: as §1, §2
2.3 Determination of XO Inhibitory Activity Using LC–MS/MS
To halt the enzymatic reaction, an equal volume of 1 M HCl, purchased from Kanto Chemical Co. Ltd. (Tokyo, Japan), was promptly added to the mixture after the absorbance was monitored for 30 min (Figure 1A). The mixture was then diluted 50‐fold with water containing 0.2% (v/v) formic acid (FA), which was purchased from Kanto Chemical Co. Ltd. (Tokyo, Japan), to prepare analytical samples for LC–MS/MS. UA in the analytical samples was measured using a Vanquish Ultra‐High‐Performance LC system coupled with a Vanquish variable wavelength detector VF‐D40 and a Q Exactive Focus (Thermo Fisher Scientific Inc., MA, USA). UA in the analytical samples was separated using an XBridge Peptide BEH C18 Column (2.1 mm i.d. × 250 mm, 3.5 μm, Waters Inc., MA, USA).
UA separation was achieved using 0.1% (v/v) FA in water (solvent A) and 0.1% FA in methanol (solvent B, Kanto Chemical Co. Ltd., Tokyo, Japan) with the following gradient over 22 min: 2% B for 5 min, increased from 2% to 10% B over 3 min, from 10% to 80% B over 2 min, held at 80% B for 2 min, decreased from 80% to 2% B over 0.1 min and held at 2% B for 10 min. The column temperature and flow rate were maintained at 40°C and 0.2 mL/min, respectively. During separation, the absorbance was monitored at 290 nm.
MS detection was performed in positive ion mode. […] The peak area detected at a retention time of 4.3 min was analyzed using Thermo Scientific Xcalibur. UA was quantified using the absolute calibration curve method, which was constructed from the peak areas of UA at various concentrations. XO inhibitory activity was calculated as [1 − UAs/UAc] × 100%, where UAs and UAc represent the amount of UA in the samples and control, respectively.
as §3

[3] = system: rat model of hyperuricemia; details: ref Qi et al. [2023], [2024]; cited from earlier work
From the text: As study limitations, the mechanism for alleviating hyperuricemia is known to involve not only XO activity inhibition but also other factors, such as UA excretion promotion and UA reabsorption inhibition (Cicero et al. [2021]).

[4] = system: rat model of hyperuricemia; details: orally administered, ref He et al. [2024], Qi et al. [2022a]; cited from earlier work
From the text: There have been numerous reports on bioactive peptides with XO inhibitory activity.

[5] = 20 mM, absorbance at 290 nm, 0-30 min, XO 25 U/L, xanthine 0.42 mM, 0.1 M phosphate buffer pH 7.2 containing 0.1 M sodium chloride, mean ± SD, n = 3, Figure 3
[6] = experiment of Figure 6 (DQW fragment)
[7] = 1-20 mM tested, n = 3, Figure 3

T1 sequence (P80457 whole entry): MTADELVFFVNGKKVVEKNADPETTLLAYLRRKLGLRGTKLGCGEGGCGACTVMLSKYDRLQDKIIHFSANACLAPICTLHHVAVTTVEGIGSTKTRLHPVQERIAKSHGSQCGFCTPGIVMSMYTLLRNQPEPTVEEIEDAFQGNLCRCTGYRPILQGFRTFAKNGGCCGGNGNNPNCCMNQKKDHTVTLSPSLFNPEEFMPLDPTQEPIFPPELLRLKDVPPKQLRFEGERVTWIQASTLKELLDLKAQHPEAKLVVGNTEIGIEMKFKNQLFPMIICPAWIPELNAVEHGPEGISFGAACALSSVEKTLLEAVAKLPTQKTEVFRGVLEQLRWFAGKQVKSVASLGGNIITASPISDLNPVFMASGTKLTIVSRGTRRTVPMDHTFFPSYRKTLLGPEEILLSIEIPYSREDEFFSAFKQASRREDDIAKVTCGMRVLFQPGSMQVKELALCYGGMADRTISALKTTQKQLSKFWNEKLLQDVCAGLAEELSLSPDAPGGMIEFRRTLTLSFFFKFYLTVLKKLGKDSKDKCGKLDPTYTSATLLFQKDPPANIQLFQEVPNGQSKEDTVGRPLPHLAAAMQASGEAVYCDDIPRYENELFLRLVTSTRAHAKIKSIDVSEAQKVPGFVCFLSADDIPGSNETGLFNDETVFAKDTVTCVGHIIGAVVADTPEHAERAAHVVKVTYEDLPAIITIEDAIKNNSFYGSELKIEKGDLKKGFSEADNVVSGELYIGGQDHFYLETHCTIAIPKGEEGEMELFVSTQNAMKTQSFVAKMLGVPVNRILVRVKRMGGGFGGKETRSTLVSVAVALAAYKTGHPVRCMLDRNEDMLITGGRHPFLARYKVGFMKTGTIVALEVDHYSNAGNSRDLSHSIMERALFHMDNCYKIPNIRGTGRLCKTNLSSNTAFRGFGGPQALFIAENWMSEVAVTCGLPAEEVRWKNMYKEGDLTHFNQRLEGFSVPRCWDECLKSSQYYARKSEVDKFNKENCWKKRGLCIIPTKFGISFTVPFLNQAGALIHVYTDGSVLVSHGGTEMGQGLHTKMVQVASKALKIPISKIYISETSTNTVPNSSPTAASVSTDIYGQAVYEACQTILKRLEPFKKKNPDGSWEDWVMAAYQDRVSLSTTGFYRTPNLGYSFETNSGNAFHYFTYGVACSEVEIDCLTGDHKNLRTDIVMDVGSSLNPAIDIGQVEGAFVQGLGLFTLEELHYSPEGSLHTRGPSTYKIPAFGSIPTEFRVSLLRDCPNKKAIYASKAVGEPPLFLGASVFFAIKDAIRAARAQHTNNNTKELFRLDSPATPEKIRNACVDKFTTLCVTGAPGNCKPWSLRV

Molecule: Gly‐Leu
IC50 (xanthine oxidase (XO)): 10.2 mM

Molecule: Ala‐Met
IC50 (xanthine oxidase (XO)): 40.5 mM

Molecule: Phe‐His
IC50 (xanthine oxidase (XO)): 25.7 mM

Molecule: Oc1ncnc2[nH]ncc12 [allopurinol]
Suppression of the absorbance increase / enzymatic reaction compared with control (relative absorbance) (XO from bovine milk [1]; n = 3): suppressed the increase in absorbance in a concentration‐dependent manner
Concentration dependence of XO inhibitory activity (XO from bovine milk [1]; Figure 3): increased with rising concentrations in a concentration‐dependent manner
Concentration with significant XO inhibition (XO from bovine milk [1]; allopurinol positive control, 1-50 μM tested, n = 3, Figure 3): ≥ 0.001 mM
Concentration dependence of XO inhibition (XO from bovine milk [2]; LC-MS/MS): significantly inhibited XO activity in a concentration‐dependent manner
Concentration with significant XO inhibition (XO from bovine milk [2]; allopurinol positive control, LC-MS/MS): ≥ 1 µM
XO inhibition reported earlier (xanthine oxidase (XO); ref Klein et al. [1996]): reported to have XO inhibitory activity

Molecule: YNITGW
IC50 (xanthine oxidase (XO)): 9.8 mM

Molecule: Leu‐Leu‐Trp [LLW]
Expression of genes related to UA synthesis in the liver [3]: reduce the expression of genes related to UA synthesis in the liver
Gene expression for UA excretion in the kidneys [3]: enhance gene expression for UA excretion in the kidneys
XO inhibition reported earlier (xanthine oxidase (XO); ref Qi et al. [2023], [2024]): known for their XO inhibitory activities

Molecule: Ala‐Leu
IC50 (xanthine oxidase (XO)): 34.5 mM

inhibition at 20000 µM (XO from bovine milk [1]; [5]): 96.4%
XO inhibitory activity (inhibition ratio) (XO from bovine milk [2]; experiment of Figure 5): 58.0% ± 2.8
XO inhibitory activity (inhibition ratio) (XO from bovine milk [2]; [6]): 57.9% ± 3.2
Molecule: CC(C)C[C@H](N)C(=O)N[C@@H](CC(=O)O)C(=O)N[C@@H](CCC(N)=O)C(=O)N[C@@H](Cc1c[nH]c2ccccc12)C(=O)O [LDQW, Leu‐Asp‐Gln‐Trp] (H-LDQW-OH)

Molecule: CC(C)C[C@H](N)C(=O)O [leucine]
Significance of XO inhibition at any concentration (XO from bovine milk [2]; LC-MS/MS): no significant XO inhibition was observed

XO inhibitory activity (inhibition ratio) (XO from bovine milk [2]; [6]): 48.4% ± 8.5
XO inhibitory activity in comparison with another peptide (XO from bovine milk [2]; LC-MS/MS): comparable to that of LDQW
Molecule: Asp‐Gln‐Trp [DQW]
Concentration dependence of XO inhibition (XO from bovine milk [2]; LC-MS/MS): significantly inhibited XO activity in a concentration‐dependent manner

Molecule: Pro‐Glu‐Trp [PEW, peptide derived from milk proteins]
Expression of genes related to UA synthesis in the liver [3]: reduce the expression of genes related to UA synthesis in the liver
Gene expression for UA excretion in the kidneys [3]: enhance gene expression for UA excretion in the kidneys
XO inhibition reported earlier (xanthine oxidase (XO); ref Qi et al. [2022a], [2022b]): inhibit XO
XO inhibition reported earlier (xanthine oxidase (XO); ref Qi et al. [2023], [2024]): known for their XO inhibitory activities

Molecule: Pro‐Met
IC50 (xanthine oxidase (XO)): 23.8 mM

inhibition at 20000 µM (XO from bovine milk [1]; [5]): 95.2%
Concentration with significant XO inhibition (XO from bovine milk [1]; [7]): ≥ 1 mM
XO inhibitory activity (inhibition ratio) (XO from bovine milk [2]; experiment of Figure 5): 4.4% ± 3.7
Molecule: N[C@@H](Cc1c[nH]c2ccccc12)C(=O)O [tryptophan]
Suppression of the absorbance increase / enzymatic reaction compared with control (relative absorbance) (XO from bovine milk [1]; n = 3): the enzymatic reaction by XO was suppressed compared with the control
Concentration dependence of XO inhibitory activity (XO from bovine milk [1]; Figure 3): increased with rising concentrations in a concentration‐dependent manner
Significance of XO inhibition at any concentration (XO from bovine milk [2]; LC-MS/MS): did not exhibit significant XO inhibition at any concentration

XO inhibitory activity (XO from bovine milk [1]; [5]): 25.2% ± 1.9
Concentration with significant XO inhibition (XO from bovine milk [1]; [7]): 20 mM
XO inhibitory activity (inhibition ratio) (XO from bovine milk [2]; experiment of Figure 5): 45.0% ± 1.0
Concentration with significant XO inhibition (XO from bovine milk [2]; LC-MS/MS): ≥ 5000 µM
Molecule: Ala‐Leu‐Pro‐Met [ALPM, milk protein-derived peptide used for comparison]
Suppression of the absorbance increase / enzymatic reaction compared with control (relative absorbance) (XO from bovine milk [1]; n = 3): suppressed this increase compared with the control
Concentration dependence of XO inhibition (XO from bovine milk [2]; LC-MS/MS): increase in the inhibition ratio in a concentration‐dependent manner
Renal dysfunction [4]: improve renal dysfunction
Serum uric acid (SUA) levels [4]: reduce SUA levels
XO inhibition reported earlier (xanthine oxidase (XO); ref Qi et al. [2022a], [2022b]): inhibit XO
